Test results as given in PubChem BioAssay (NCI).
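Cells were grown in 96-well plates and exposed to each compound for 48 hours at five concentrations; endpoints were interpolated linearly between bracketing concentrations, or set to the highest concentration if not reached. At the TGI there is no net growth.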

Tests used:
Test in all cases: NCI-60 cell line screen, 48 h
[1] = system: M19-MEL melanoma
[2] = system: M14 melanoma
[3] = system: SF-295 CNS
[4] = system: OVCAR-8 ovarian
[5] = system: MALME-3M melanoma
[6] = system: LOX IMVI melanoma
[7] = system: KM20L2 colon
[8] = system: NCI-H23 lung
[9] = system: CCRF-CEM leukemia
[10] = system: MOLT-4 leukemia
[11] = system: SW-620 colon
[12] = system: SF-268 CNS
[13] = system: SK-MEL-28 melanoma
[14] = system: 786-0 renal
[15] = system: SK-MEL-2 melanoma
[16] = system: OVCAR-5 ovarian
[17] = system: HL-60(TB) leukemia
[18] = system: COLO 205 colon
[19] = system: NCI-H522 lung
[20] = system: SN12C renal
[21] = system: SNB-78 CNS
[22] = system: SK-MEL-5 melanoma
[23] = system: DLD-1 colon
[24] = system: A549 NSCLC
[25] = system: NCI-H460 lung
[26] = system: HCT-116 colon
[27] = system: RXF 393 renal
[28] = system: TK-10 renal
[29] = system: UACC-62 melanoma
[30] = system: UACC-257 melanoma
[31] = system: HCC-2998 colon
[32] = system: LXFL 529 NSCLC
[33] = system: SF-539 CNS
[34] = system: HOP-62 NSCLC
[35] = system: U251 CNS
[36] = system: SNB-19 CNS
[37] = system: ACHN renal
[38] = system: DMS 273 small cell lung
[39] = system: KM12 colon
[40] = system: SK-OV-3 ovarian
[41] = system: SR leukemia
[42] = system: HCT-15 colon
[43] = system: K-562 leukemia
[44] = system: OVCAR-3 ovarian
[45] = system: IGROV1 ovarian
[46] = system: DMS 114 small cell lung
[47] = system: RPMI-8226 leukemia
[48] = system: UO-31 renal
[49] = system: EKVX NSCLC
[50] = system: NCI-H226 lung
[51] = system: A498 renal
[52] = system: HT29 colon
[53] = system: RXF-631 renal
[54] = system: HOP-92 NSCLC
[55] = system: OVCAR-4 ovarian
[56] = system: SNB-75 CNS
[57] = system: HOP-18 NSCLC
[58] = system: CAKI-1 renal
[59] = system: XF 498 CNS

Question: What does the source list for `Nc1nc(N)c(N=O)c(Nc2ccc(I)cc2)n1`?
Answer: TGI [1]: > 100 µM; TGI [2]: 56.6 µM; TGI [3]: 67.9 µM; TGI [4]: > 100 µM; TGI [5]: 78.3 µM; TGI [6]: 51.6 µM; TGI [7]: 80.6 µM; TGI [8]: 82.5 µM; TGI [9]: 89.9 µM; TGI [10]: 65.9 µM; TGI [11]: > 100 µM; TGI [12]: 74.1 µM; TGI [13]: 52.3 µM; TGI [14]: > 100 µM; TGI [15]: 34.1 µM; TGI [16]: 61 µM; TGI [17]: 36.7 µM; TGI [18]: 33.2 µM; TGI [19]: 29.9 µM; TGI [20]: 49.2 µM; TGI [21]: 66.6 µM; TGI [22]: 26.3 µM; TGI [23]: 21.6 µM; TGI [24]: > 100 µM; TGI [25]: > 100 µM; TGI [26]: 43.5 µM; TGI [27]: 55.2 µM; TGI [28]: 62.1 µM; TGI [29]: 37.9 µM; TGI [30]: 70.1 µM; TGI [31]: 88.2 µM; TGI [32]: 60.6 µM; TGI [33]: 70.4 µM; TGI [34]: 51.1 µM; TGI [35]: > 100 µM; TGI [36]: > 100 µM; TGI [37]: > 100 µM; TGI [38]: 49.7 µM; TGI [39]: > 100 µM; TGI [40]: 39.2 µM; TGI [41]: 76.1 µM; TGI [42]: 96.7 µM; TGI [43]: > 100 µM; TGI [44]: 43.7 µM; TGI [45]: 25.8 µM; TGI [46]: 64.9 µM; TGI [47]: > 100 µM; TGI [48]: > 100 µM; TGI [49]: > 100 µM

Question: `O=P(O)(O)C1CCCC(P(=O)(O)O)N1` (stereo not given) was tested. Which TGI [1] did it give?
Answer: > 100 µM

Question: What about the TGI [2] of the same compound?
Answer: > 100 µM

Question: And the TGI [3]?
Answer: > 100 µM

Question: What about the TGI [4] of the same compound?
Answer: > 100 µM

Question: What about the TGI [7] of the same compound?
Answer: > 100 µM

Question: And the TGI [8]?
Answer: > 100 µM

Question: And the TGI [9]?
Answer: > 100 µM

Question: And the TGI [10]?
Answer: > 100 µM

Question: And the TGI [12]?
Answer: > 100 µM

Question: And the TGI [13]?
Answer: > 100 µM

Question: And the TGI [16]?
Answer: > 100 µM

Question: And the TGI [17]?
Answer: > 100 µM

Question: And the TGI [19]?
Answer: > 100 µM

Question: And the TGI [21]?
Answer: > 100 µM

Question: What about the TGI [50] of the same compound?
Answer: > 100 µM

Question: What about the TGI [24] of the same compound?
Answer: > 100 µM

Question: And the TGI [51]?
Answer: > 100 µM

Question: What about the TGI [25] of the same compound?
Answer: > 100 µM

Question: What about the TGI [26] of the same compound?
Answer: > 100 µM

Question: And the TGI [27]?
Answer: > 100 µM

Question: And the TGI [52]?
Answer: > 100 µM

Question: What about the TGI [28] of the same compound?
Answer: > 100 µM

Question: And the TGI [30]?
Answer: > 100 µM

Question: What about the TGI [34] of the same compound?
Answer: > 100 µM

Question: What about the TGI [35] of the same compound?
Answer: > 100 µM

Question: And the TGI [36]?
Answer: > 100 µM

Question: And the TGI [37]?
Answer: > 100 µM

Question: What about the TGI [38] of the same compound?
Answer: > 100 µM

Question: And the TGI [39]?
Answer: > 100 µM

Question: And the TGI [40]?
Answer: > 100 µM

Question: And the TGI [41]?
Answer: > 100 µM

Question: And the TGI [53]?
Answer: > 100 µM

Question: And the TGI [54]?
Answer: > 100 µM

Question: What about the TGI [45] of the same compound?
Answer: > 100 µM

Question: And the TGI [46]?
Answer: > 100 µM

Question: And the TGI [48]?
Answer: > 100 µM

Question: What about the TGI [49] of the same compound?
Answer: > 100 µM

Question: How did the TGI [1] turn out when `N#CCN1CCOCCOCCN(CC#N)CCOCCOCC1` was run?
Answer: > 100 µM

Question: And the TGI [2]?
Answer: > 100 µM

Question: What about the TGI [3] of the same compound?
Answer: > 100 µM

Question: And the TGI [4]?
Answer: > 100 µM

Question: And the TGI [5]?
Answer: > 100 µM

Question: And the TGI [6]?
Answer: > 100 µM

Question: What about the TGI [7] of the same compound?
Answer: > 100 µM

Question: And the TGI [8]?
Answer: > 100 µM

Question: What about the TGI [9] of the same compound?
Answer: > 100 µM

Question: What about the TGI [10] of the same compound?
Answer: > 100 µM

Question: And the TGI [11]?
Answer: > 100 µM

Question: And the TGI [12]?
Answer: > 100 µM

Question: And the TGI [13]?
Answer: > 100 µM

Question: What about the TGI [14] of the same compound?
Answer: > 100 µM

Question: And the TGI [55]?
Answer: > 100 µM

Question: And the TGI [16]?
Answer: > 100 µM

Question: And the TGI [17]?
Answer: > 100 µM

Question: And the TGI [18]?
Answer: > 100 µM

Question: What about the TGI [20] of the same compound?
Answer: > 100 µM

Question: What about the TGI [21] of the same compound?
Answer: > 100 µM

Question: What about the TGI [50] of the same compound?
Answer: > 100 µM

Question: And the TGI [22]?
Answer: > 100 µM

Question: And the TGI [23]?
Answer: > 100 µM

Question: And the TGI [24]?
Answer: > 100 µM

Question: And the TGI [56]?
Answer: > 100 µM

Question: And the TGI [51]?
Answer: > 100 µM

Question: What about the TGI [25] of the same compound?
Answer: > 100 µM

Question: What about the TGI [26] of the same compound?
Answer: > 100 µM

Question: What about the TGI [27] of the same compound?
Answer: > 100 µM

Question: And the TGI [52]?
Answer: > 100 µM

Question: And the TGI [28]?
Answer: > 100 µM

Question: What about the TGI [29] of the same compound?
Answer: > 100 µM

Question: And the TGI [30]?
Answer: > 100 µM

Question: What about the TGI [31] of the same compound?
Answer: > 100 µM

Question: What about the TGI [32] of the same compound?
Answer: > 100 µM

Question: What about the TGI [33] of the same compound?
Answer: > 100 µM

Question: What about the TGI [34] of the same compound?
Answer: > 100 µM

Question: And the TGI [36]?
Answer: > 100 µM

Question: And the TGI [37]?
Answer: > 100 µM

Question: What about the TGI [41] of the same compound?
Answer: > 100 µM

Question: And the TGI [53]?
Answer: > 100 µM

Question: What about the TGI [42] of the same compound?
Answer: > 100 µM

Question: And the TGI [43]?
Answer: > 100 µM

Question: What about the TGI [44] of the same compound?
Answer: > 100 µM

Question: And the TGI [54]?
Answer: > 100 µM

Question: And the TGI [45]?
Answer: > 100 µM

Question: What about the TGI [46] of the same compound?
Answer: > 100 µM

Question: And the TGI [47]?
Answer: > 100 µM

Question: What about the TGI [57] of the same compound?
Answer: > 100 µM

Question: And the TGI [58]?
Answer: > 100 µM

Question: And the TGI [48]?
Answer: > 100 µM

Question: And the TGI [49]?
Answer: > 100 µM

Question: Which results are given for `CCCc1c(C(=O)OCC)[nH]c(-c2ccc(-c3[nH]c(C(=O)OCC)c(CCC)c3C(=O)OCC)o2)c1C(=O)OCC`?
Answer: TGI [1]: > 100 µM; TGI [2]: > 100 µM; TGI [3]: > 100 µM; TGI [4]: > 100 µM; TGI [5]: > 100 µM; TGI [6]: > 100 µM; TGI [7]: > 100 µM; TGI [8]: > 100 µM; TGI [9]: > 100 µM; TGI [10]: > 100 µM; TGI [11]: > 100 µM; TGI [12]: > 100 µM; TGI [13]: > 100 µM; TGI [14]: > 100 µM; TGI [55]: > 100 µM; TGI [15]: > 100 µM; TGI [16]: > 100 µM; TGI [17]: > 100 µM; TGI [18]: > 100 µM; TGI [19]: > 100 µM; TGI [20]: > 100 µM; TGI [21]: > 100 µM; TGI [50]: > 100 µM; TGI [22]: > 100 µM; TGI [23]: > 100 µM; TGI [24]: > 100 µM; TGI [56]: > 100 µM; TGI [51]: > 100 µM; TGI [25]: > 100 µM; TGI [26]: > 100 µM; TGI [27]: > 100 µM; TGI [59]: > 100 µM; TGI [52]: > 100 µM; TGI [28]: > 100 µM; TGI [29]: > 100 µM; TGI [30]: > 100 µM; TGI [31]: > 100 µM; TGI [32]: > 100 µM; TGI [33]: > 100 µM; TGI [35]: > 100 µM; TGI [36]: > 100 µM; TGI [37]: > 100 µM; TGI [38]: > 100 µM; TGI [39]: > 100 µM; TGI [40]: > 100 µM; TGI [41]: > 100 µM; TGI [42]: > 100 µM; TGI [43]: > 100 µM; TGI [44]: > 100 µM; TGI [54]: > 100 µM; TGI [45]: > 100 µM; TGI [46]: > 100 µM; TGI [47]: > 100 µM; TGI [57]: > 100 µM; TGI [58]: > 100 µM; TGI [48]: > 100 µM; TGI [49]: > 100 µM
